Experimental data published in patent US20250230193A1, “CYCLIC COMPOUND HAVING SELECTIVE KRAS INHIBITORY EFFECT ON HRAS AND NRAS” (CHUGAI SEIYAKU KABUSHIKI KAISHA, priority 2022, published 2025).

What was measured:
[1] = biological target: GDP-bound NRAS wild-type protein (Homo sapiens, UniProt P01111); assay: Binding to NRAS by surface plasmon resonance (SPR), Single Cycle Kinetics; conditions: for NRAS/KRAS (ratio of KD value with respect to NRAS to KD value with respect to KRAS) / NRAS/KRAS (ratio of KD value for NRAS to KD value for KRAS): GDP-bound NRAS wild-type vs GDP-bound KRAS wild-type
GDP-bound NRAS wild-type protein, sequence (P01111 whole entry): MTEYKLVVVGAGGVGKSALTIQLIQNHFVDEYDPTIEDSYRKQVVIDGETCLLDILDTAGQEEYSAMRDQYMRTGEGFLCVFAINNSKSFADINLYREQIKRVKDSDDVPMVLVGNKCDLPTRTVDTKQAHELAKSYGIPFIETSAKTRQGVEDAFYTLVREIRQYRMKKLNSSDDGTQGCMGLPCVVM

[2] = biological target: GDP-bound HRAS wild-type protein (Homo sapiens, UniProt P01112); assay: Binding to HRAS by surface plasmon resonance (SPR), Single Cycle Kinetics; conditions: for HRAS/KRAS (ratio of KD value with respect to HRAS to KD value with respect to KRAS) / HRAS/KRAS (ratio of KD value for HRAS to KD value for KRAS): GDP-bound HRAS wild-type vs GDP-bound KRAS wild-type
GDP-bound HRAS wild-type protein, sequence (P01112 whole entry): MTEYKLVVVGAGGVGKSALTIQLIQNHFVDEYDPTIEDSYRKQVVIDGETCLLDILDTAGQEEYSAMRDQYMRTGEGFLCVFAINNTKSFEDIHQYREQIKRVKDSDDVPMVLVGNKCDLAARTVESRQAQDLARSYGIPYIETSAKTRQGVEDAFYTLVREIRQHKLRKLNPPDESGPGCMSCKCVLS

[3] = SPR, GDP-bound wild-type proteins

CCC[C@H]1C(=O)N[C@@H]([C@@H](C)CC)C(=O)N(C)CC(=O)N(C)[C@H]2C/C=C\CCN(C2=O)[C@@H](Cc2ccc(C(F)(F)F)cc2)C(=O)N(C)CC(=O)N[C@@H](CCc2cc(Cl)c3sccc3c2)C(=O)N2C[C@H](OCC)C[C@H]2C(=O)NC2(CC(C)(C)C2)C(=O)N(C)[C@@H](C2CCCC2)C(=O)N(C)[C@H](C(=O)N(C)C)CC(=O)N1C [PP2946]
NRAS/KRAS (ratio of KD value with respect to GDP-bound NRAS wild-type protein to KD value with respect to KRAS) ([1]; class symbols): A (a compound having 10 or more and less than 20 is denoted as A) | HRAS/KRAS (ratio of KD value with respect to GDP-bound HRAS wild-type protein to KD value with respect to KRAS) ([2]; class symbols): A (a compound having 10 or more and less than 20 is denoted as A)

CCO[C@@H]1C[C@H]2C(=O)NC3(CCC3)C(=O)N(C)[C@@H](C3CCCC3)C(=O)N(C)[C@H](C(=O)N(C)CCOC)CC(=O)N(C)[C@@H](CC3CC3)C(=O)N[C@@H]([C@@H](C)CC)C(=O)N(C)CC(=O)N(C)[C@H]3C/C=C\CCN(C3=O)[C@@H](Cc3ccc(C(F)(F)F)cc3)C(=O)N(C)CC(=O)N[C@@H](CCc3ccc(Cl)c(Cl)c3)C(=O)N2C1 [PP1329]
NRAS/KRAS (ratio of KD value for GDP-bound NRAS wild-type protein to KD value for KRAS) ([1]; SPR, KD ratio class): AA (a compound having 20 or more is denoted as AA) | HRAS/KRAS (ratio of KD value for GDP-bound HRAS wild-type protein to KD value for KRAS) ([2]; SPR, KD ratio class): A (a compound having 10 or more and less than 20 is denoted as A)

C=CC[C@H]1C(=O)N[C@@H]([C@@H](C)CC)C(=O)N(C)CC(=O)N(C)[C@H]2CCCCCN(C2=O)[C@@H](Cc2ccc(C(F)(F)F)cc2)C(=O)N(C)CC(=O)N[C@@H](CCc2cc(F)c(C(F)(F)F)c(F)c2)C(=O)N2C[C@H](OCC)C[C@H]2C(=O)NC2(CCC2)C(=O)N(C)[C@@H](C2CCCC2)C(=O)N(C)[C@H](C(=O)N(C)C)CC(=O)N1C [PP0665]
NRAS/KRAS (ratio of KD value with respect to GDP-bound NRAS wild-type protein to KD value with respect to KRAS) ([1]; SPR): B (a compound having 3 or more and less than 10 is denoted as B) | HRAS/KRAS (ratio of KD value with respect to GDP-bound HRAS wild-type protein to KD value with respect to KRAS) ([2]; SPR): B (a compound having 3 or more and less than 10 is denoted as B)

CCCCO[C@H]1CCN2C(=O)[C@H](CCc3cc(F)c(C(F)(F)F)c(F)c3)NC(=O)CN(C)C(=O)[C@H](Cc3ccc(C(F)(F)F)cc3)N3CCCC[C@@H](C3=O)N(C)C(=O)CN(C)C(=O)[C@H]([C@@H](C)CC)NC(=O)[C@H](CC(C)C)N(C)C(=O)C[C@@H](C(=O)N3CCOCC3)N(C)C(=O)[C@H](C3CCCC3)N(C)C(=O)C3(CCC3)NC(=O)[C@H]12 [PP1071]
NRAS/KRAS (ratio of KD value with respect to NRAS to KD value with respect to KRAS) ([1]; SPR): B (a compound having 3 or more and less than 10 is denoted as B) | HRAS/KRAS (ratio of KD value with respect to HRAS to KD value with respect to KRAS) ([2]; KD ratio, SPR): B (a compound having 3 or more and less than 10 is denoted as B)

CCO[C@@H]1C[C@H]2C(=O)NC3(CCC3)C(=O)N(C)[C@@H](C3CCCC3)C(=O)N(C)[C@H](C(=O)N(C)CC)CC(=O)N(C)[C@@H](CC3CCC3)C(=O)N[C@@H]([C@@H](C)CC)C(=O)N(C)CC(=O)N(C)[C@H]3C/C=C\CCN(C3=O)[C@@H](Cc3ccc(C(F)(F)F)cc3)C(=O)N(C)CC(=O)N[C@@H](CCc3cc(F)c(C(F)(F)F)c(F)c3)C(=O)N2C1 [PP1667]
NRAS/KRAS (ratio of KD value for NRAS to KD value for KRAS) ([1]; SPR): A (a compound having 10 or more and less than 20 is denoted as A) | HRAS/KRAS (ratio of KD value for HRAS to KD value for KRAS) ([2]; KD ratio, SPR): A (a compound having 10 or more and less than 20 is denoted as A)

CCO[C@@H]1C[C@H]2C(=O)NC3(CC(C)(C)C3)C(=O)N(C)[C@@H](C3CCCC3)C(=O)N(C)[C@H](C(=O)N(C)C)CC(=O)N(C)[C@@H](CC(C)C)C(=O)N[C@@H]([C@@H](C)CC)C(=O)N(C)CC(=O)N(C)[C@H]3C/C=C\CCN(C3=O)[C@@H](Cc3ccc(C(F)(F)F)cc3)C(=O)N(C)CC(=O)N[C@@H](CCc3ccc(C(F)(F)F)c(Cl)c3)C(=O)N2C1 [PP1751]
NRAS/KRAS (ratio of KD value for NRAS to KD value for KRAS) ([1]; SPR): A (a compound having 10 or more and less than 20 is denoted as A) | HRAS/KRAS (ratio of KD value for HRAS to KD value for KRAS) ([2]; KD ratio, SPR): A (a compound having 10 or more and less than 20 is denoted as A)

CCO[C@@H]1C[C@H]2C(=O)NC3(CCC3)C(=O)N(C)[C@@H](C3CCCC3)C(=O)N(C)[C@H](C(=O)N3CCOCC3)CC(=O)N(C)[C@@H](Cc3cccc(C#N)c3)C(=O)N[C@@H]([C@@H](C)CC)C(=O)N(C)CC(=O)N(C)[C@H]3CCCCCN(C3=O)[C@@H](Cc3ccc(F)cc3)C(=O)N(C)CC(=O)N[C@@H](CCc3cc(F)c(C(F)(F)F)c(F)c3)C(=O)N2C1 [PP1186]
NRAS/KRAS (ratio of KD value with respect to NRAS to KD value with respect to KRAS) ([1]; SPR): B (a compound having 3 or more and less than 10 is denoted as B) | HRAS/KRAS (ratio of KD value with respect to HRAS to KD value with respect to KRAS) ([2]; KD ratio, SPR): B (a compound having 3 or more and less than 10 is denoted as B)

CC[C@H](C)[C@@H]1NC(=O)[C@H](C)N(C)C(=O)C[C@@H](C(=O)N(C)C)N(C)C(=O)[C@H](C2CCCC2)N(C)C(=O)C2(CC(C)(C)C2)NC(=O)[C@@H]2CC(F)(F)CN2C(=O)[C@H](CCc2cc(F)c(C(F)(F)F)c(F)c2)NC(=O)CN(C)C(=O)[C@H](Cc2ccc(C(F)(F)F)cc2)N2CC/C=C\C[C@@H](C2=O)N(C)C(=O)CN(C)C1=O [PP1707]
NRAS/KRAS (ratio of KD value for NRAS to KD value for KRAS) ([1]; SPR): AA (a compound having 20 or more is denoted as AA) | HRAS/KRAS (ratio of KD value for HRAS to KD value for KRAS) ([2]; KD ratio, SPR): A (a compound having 10 or more and less than 20 is denoted as A)

CCC(CC)[C@H]1C(=O)N(C)[C@H](C(=O)N(C)C)CC(=O)N(C)[C@@H](COC)C(=O)N[C@@H]([C@@H](C)CC)C(=O)N(C2CC2)CC(=O)N(C)[C@H]2C/C=C\CCN(C2=O)[C@@H](CC2CCCCC2)C(=O)N(C)CC(=O)N[C@@H](CCc2ccc(Cl)c(Cl)c2)C(=O)N2C[C@H](OC(C)C)C[C@H]2C(=O)NC2(CC(C)(C)C2)C(=O)N1C [PP2517]
HRAS/KRAS (ratio of KD value with respect to HRAS to KD value with respect to KRAS) ([2]; SPR): A (a compound having 10 or more and less than 20 is denoted as A)

CCO[C@@H]1C[C@H]2C(=O)NC3(CC(C)(C)C3)C(=O)N(C)[C@@H](C3CCCC3)C(=O)N(C)[C@H](C(=O)N(C)C)CC(=O)N(C)[C@H]3CCCCCCc4ccc(cc4)C[C@@H](C(=O)N(C)CC(=O)N[C@@H](CCc4ccc(C(F)(F)F)c(OC)c4)C(=O)N2C1)N1CC/C=C\C[C@@H](C1=O)N(C)C(=O)CN(C1CC1)C(=O)[C@H]([C@@H](C)CC)NC3=O [PP3070]
HRAS/KRAS (ratio of KD value with respect to GDP-bound HRAS wild-type protein to KD value with respect to KRAS) [2, 3]: B (a compound having 3 or more and less than 10 is denoted as B)

CCC[C@H]1C(=O)N[C@@H]([C@@H](C)CC)C(=O)N(C)CC(=O)N(C)[C@H]2C/C=C\CCN(C2=O)[C@@H](Cc2ccc(C)cc2)C(=O)N(C)CC(=O)N[C@@H](CCc2ccc(Cl)c(OC)c2)C(=O)N2C[C@H](OCC)C[C@H]2C(=O)NC2(CC(C)(C)C2)C(=O)N(C)[C@@H](C(CC)CC)C(=O)N(C)[C@H](C(=O)N(C)C)CC(=O)N1C [PP2791]
HRAS/KRAS (ratio of KD value with respect to GDP-bound HRAS wild-type protein to KD value with respect to KRAS) ([2]; class symbols): A (a compound having 10 or more and less than 20 is denoted as A)

CCC[C@H]1C(=O)N[C@@H]([C@@H](C)CC)C(=O)N(C)CC(=O)N(C)[C@H]2C/C=C\CCN(C2=O)[C@@H](Cc2ccc(C(F)(F)F)cc2)C(=O)N(C)CC(=O)N[C@@H](CCc2ccc(C(F)(F)F)c(OC)c2)C(=O)N2C[C@H](OCC)C[C@H]2C(=O)N(C)C2(CCC2)C(=O)N(C)[C@@H](C2CCCC2)C(=O)N(C)[C@H](C(=O)N2CCCCC2)CC(=O)N1C [PP3103, (2S,8S,12R,14S,20S,23S,27S,30S,36S,38Z)-20-cyclopentyl-12-ethoxy-8-[2-[3-methoxy-4-(trifluoromethyl)phenyl]ethyl]-4,16,19,22,26,32,35-heptamethyl-30-[(1S)-1-methylpropyl]-23-(piperidine-1-carbonyl)-27-propyl-2-[[4-(trifluoromethyl)phenyl]methyl]spiro[1,4,7,10,16,19,22,26,29,32,35-undecazatricyclo[34.5.1.0^10,14]dotetracont-38-ene-17,1′-cyclobutane]-3,6,9,15,18,21,25,28,31,34,42-undecone]
HRAS/KRAS (ratio of KD value with respect to GDP-bound HRAS wild-type protein to KD value with respect to KRAS) [2, 3]: A (a compound having 10 or more and less than 20 is denoted as A)

CC[C@H](C)[C@@H]1NC(=O)[C@H](COC)N(C)C(=O)C[C@@H](C(=O)N2CCCCC2)N(C)C(=O)[C@H](C2CCCC2)N(C)C(=O)C2(CC(C)(C)C2)NC(=O)[C@@H]2C[C@@H](OC(C)C)CN2C(=O)[C@H](CCc2cc(F)c(C(F)(F)F)c(F)c2)NC(=O)CN(C)C(=O)[C@H](Cc2ccc(C(F)(F)F)cc2)N2CC/C=C\C[C@@H](C2=O)N(C)C(=O)CN(C)C1=O [PP2663]
HRAS/KRAS (ratio of KD value with respect to GDP-bound HRAS wild-type protein to KD value with respect to KRAS) ([2]; class symbols): A (a compound having 10 or more and less than 20 is denoted as A)

CCO[C@@H]1C[C@H]2C(=O)NC3(CC(C)(C)C3)C(=O)N(C)[C@@H](C3CCCC3)C(=O)N(C)[C@H](C(=O)N(C)CC)CC(=O)N(C)[C@@H](C3CCC3)C(=O)N[C@@H]([C@@H](C)CC)C(=O)N(C)CC(=O)N(C)[C@H]3C/C=C\CCN(C3=O)[C@@H](Cc3ccc(C(F)(F)F)cc3)C(=O)N(C)CC(=O)N[C@@H](CCc3ccc(C(F)(F)F)c(OC)c3)C(=O)N2C1 [PP1985]
HRAS/KRAS (ratio of KD value for HRAS to KD value for KRAS) ([2]; KD ratio, SPR): B (a compound having 3 or more and less than 10 is denoted as B)

CCC[C@H]1C(=O)N[C@@H](CC(C)C)C(=O)N(C2CC2)CC(=O)N(C)[C@H]2C/C=C\CCN(C2=O)[C@@H](Cc2ccc(C)cc2)C(=O)N(C)CC(=O)N[C@@H](CCc2ccc(C(F)(F)F)c(Cl)c2)C(=O)N2C[C@H](OCC)C[C@H]2C(=O)NC2(CCC2)C(=O)N(C)[C@@H](C2CCCC2)C(=O)N(C)[C@H](C(=O)N(C)C)CC(=O)N1C [PP2543]
HRAS/KRAS (ratio of KD value with respect to GDP-bound HRAS wild-type protein to KD value with respect to KRAS) ([2]; class symbols): B (a compound having 3 or more and less than 10 is denoted as B)
